This passage reports IC50 results from patent US8404647B2, “Peptidylarginine deiminase (PAD) inhibitors” (Chiralix B.V., priority 2008, dated 2013).

Square brackets hold non-standard residues; d marks the D form. Peptide text beside a SMILES is read from it. Orn(fluoroacetimidoyl) = N=C(CF)NCCC[C@H](N)C(=O)O

As usually defined, the IC50 is the point on the concentration scale where inhibition reaches its midpoint.

The target of one experiment is creatine kinase (CK). Description: Creatine kinase activity (CK NAC activated liquiUV test). The note with it: enzyme treated with inhibitor 10 min at room temperature. It counts as biochemical, mammalian.
The target of the next experiment is transglutaminase (TG) (UniProt P08587). Description: biochemical.
The next experiment concerns the target papain (Carica papaya, UniProt P00784). The experiment is described as follows: biochemical.
A further experiment addresses hDDAH-1 (Homo sapiens, UniProt O94760). The experiment is described as follows: biochemical.
A further experiment has as its target T1, caspase-3 (Homo sapiens, UniProt P42574).
T1 sequence (P42574 29-175 limits assumed): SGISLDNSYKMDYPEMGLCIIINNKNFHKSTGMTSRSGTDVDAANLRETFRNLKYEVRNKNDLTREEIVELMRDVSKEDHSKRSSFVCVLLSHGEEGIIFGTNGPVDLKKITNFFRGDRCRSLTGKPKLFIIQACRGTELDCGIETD
T1 sequence (P42574 176-277 limits assumed): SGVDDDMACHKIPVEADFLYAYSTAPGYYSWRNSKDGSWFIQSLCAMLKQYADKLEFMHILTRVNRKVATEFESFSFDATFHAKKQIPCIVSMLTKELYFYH
The experiment is described as follows: Caspase-3 activity assay (Ac-DEVDpNA cleavage). It counts as biochemical, mammalian. The note with it: enzyme treated with inhibitor 10 min at room temperature. The method, then:
Upon incubation of purified recombinant caspase-3 with its commercially available substrate: acetyl-Asp-Glu-Val-Asp-p-nitroanilide (Ac-DEVDpNA) SEQ ID NO: 145 in CFS buffer (220 mM mannitol, 68 mM sucrose, 2mM NaCl, 2.5 mM KH2PO4, 10 mM HEPES, pH 7.4 plus a cocktail of protease inhibitors), the substrate is cleaved, pNA is released and its absorbance at 405 nm can be monitored.

The target in experiment [1] is T2, PAD2 (Homo sapiens, UniProt Q9Y2J8). The experiment is described as follows: Colorimetric assay (BAEE, DAMO/antipyrine), PAD2. To be noted: Table 22, colorimetric assay of Example 6; read-out: IC50 values (μM) hPAD2. It counts as biochemical. The method, then:
One of the assays that was used to investigate the inhibition of a PAD by the inhibitors, is the colorimetric assay that has been described previously {Sugawara et al. 1998}. In this assay benzoylarginine ethyl ester (BAEE) is incubated with a purified recombinant PAD enzyme as indicated in a buffer containing 50 mM Tris-HCl, pH 7.6, 10 mM CaCl2, 2 mM dithiothreitol for 3 hours at 37° C. […] After cooling down to room temperature, the absorbance is measured at 450 nm.
To test the efficacy of the inhibitors (see Table 21) in this assay, a recombinant PAD enzyme as indicated was pre-incubated with various concentrations of inhibitory compounds for 15 minutes at 37° C.
The capacity of various compounds to inhibit the human PAD2 (0.12 μM) and PAD4 (0.2 μM) in this colorimetric assay is illustrated in FIG. 4.

Experiment [2] has as its target T2, PAD2. The experiment is described as follows: ABAP antibody based PAD enzyme activity assay, PAD2. The note with it: Table 19, first 8 pentapeptide inhibitors. It counts as biochemical. On the procedure: These 8 pentapeptides inhibitors are represented by SEQ ID NO: 12-19. (O(FA) stands for ornithine fluoroamidine, O(CA) stands for ornithine chloroamidine). The IC50's for human PAD2 and 4 as well as for mouse PAD2 and 4 were determined in an assay developed by Zendman and others {Zendman et al. 2007}. Of this series the inhibitor T-D-O(FA)-G-S(CXP5-101) (SEQ ID NO: 12) was the best PAD2 and PAD4 inhibitor. Subsequently, several modifications were brought to this lead compound.
To determine inhibition of PAD2 and PAD4 activity, the commercially available Antibody based PAD enzyme activity assay from ModiQuest Research (cat no: MQ17.101) has been used according to manufacturers specifications.
PAD enzymes (amounts that give maximum deimination) were mixed with PAD inhibitors at the following concentrations (4.9, 9.8, 19.5, 39, 78.1, 156, 313, 625, 1250, 2500 and 5000 μM) and pre-incubated for 30 minutes at 37° C. After pre-incubation, mixtures of PAD enzymes and inhibitors were added to the wells for an additional incubation of 75 minutes. After thoroughly washing the 96-well plates with PBS, the conversion of the arginines into citrullines of the coating was measured with the use of a propriety anti-citrulline-antibody, followed by a secondary HRP-labelled antibody recognizing the anti-citrulline antibody. Incubation with both antibodies was performed for 1 h at 37° C. […]

T2 sequence (Q9Y2J8 whole entry): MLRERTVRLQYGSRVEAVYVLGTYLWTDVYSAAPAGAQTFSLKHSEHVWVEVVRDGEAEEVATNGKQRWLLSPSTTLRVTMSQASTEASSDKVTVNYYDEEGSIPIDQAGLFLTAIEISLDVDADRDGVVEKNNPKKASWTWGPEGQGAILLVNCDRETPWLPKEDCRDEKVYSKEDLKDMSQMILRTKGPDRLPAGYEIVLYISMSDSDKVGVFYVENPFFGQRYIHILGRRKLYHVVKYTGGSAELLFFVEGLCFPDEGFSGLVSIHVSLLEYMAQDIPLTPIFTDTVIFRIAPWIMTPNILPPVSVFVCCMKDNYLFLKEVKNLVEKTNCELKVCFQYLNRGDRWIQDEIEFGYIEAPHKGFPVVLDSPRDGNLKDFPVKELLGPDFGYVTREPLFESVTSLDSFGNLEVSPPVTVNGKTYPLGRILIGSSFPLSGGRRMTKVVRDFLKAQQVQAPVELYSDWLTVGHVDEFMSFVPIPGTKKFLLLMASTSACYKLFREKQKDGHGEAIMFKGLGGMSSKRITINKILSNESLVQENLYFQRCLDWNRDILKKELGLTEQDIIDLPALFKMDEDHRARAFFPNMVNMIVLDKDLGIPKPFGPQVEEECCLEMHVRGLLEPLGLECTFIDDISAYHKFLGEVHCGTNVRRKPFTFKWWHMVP
Sequence of papain (P00784 134-345): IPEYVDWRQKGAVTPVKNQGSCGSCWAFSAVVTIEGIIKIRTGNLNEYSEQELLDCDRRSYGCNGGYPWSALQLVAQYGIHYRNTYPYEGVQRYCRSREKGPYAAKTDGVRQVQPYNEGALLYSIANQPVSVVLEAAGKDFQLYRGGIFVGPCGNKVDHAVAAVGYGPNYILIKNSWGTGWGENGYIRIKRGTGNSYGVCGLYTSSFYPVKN
Sequence of hDDAH-1 (O94760 whole entry): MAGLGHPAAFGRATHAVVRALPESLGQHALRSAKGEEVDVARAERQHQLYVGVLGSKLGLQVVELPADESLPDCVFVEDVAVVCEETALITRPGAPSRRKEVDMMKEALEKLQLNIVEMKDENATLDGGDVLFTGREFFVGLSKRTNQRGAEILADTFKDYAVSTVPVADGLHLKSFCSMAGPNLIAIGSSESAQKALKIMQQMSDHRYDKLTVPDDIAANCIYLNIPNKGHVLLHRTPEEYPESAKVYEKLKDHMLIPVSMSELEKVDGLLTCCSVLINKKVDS
Sequence of transglutaminase (TG) (P08587 whole entry): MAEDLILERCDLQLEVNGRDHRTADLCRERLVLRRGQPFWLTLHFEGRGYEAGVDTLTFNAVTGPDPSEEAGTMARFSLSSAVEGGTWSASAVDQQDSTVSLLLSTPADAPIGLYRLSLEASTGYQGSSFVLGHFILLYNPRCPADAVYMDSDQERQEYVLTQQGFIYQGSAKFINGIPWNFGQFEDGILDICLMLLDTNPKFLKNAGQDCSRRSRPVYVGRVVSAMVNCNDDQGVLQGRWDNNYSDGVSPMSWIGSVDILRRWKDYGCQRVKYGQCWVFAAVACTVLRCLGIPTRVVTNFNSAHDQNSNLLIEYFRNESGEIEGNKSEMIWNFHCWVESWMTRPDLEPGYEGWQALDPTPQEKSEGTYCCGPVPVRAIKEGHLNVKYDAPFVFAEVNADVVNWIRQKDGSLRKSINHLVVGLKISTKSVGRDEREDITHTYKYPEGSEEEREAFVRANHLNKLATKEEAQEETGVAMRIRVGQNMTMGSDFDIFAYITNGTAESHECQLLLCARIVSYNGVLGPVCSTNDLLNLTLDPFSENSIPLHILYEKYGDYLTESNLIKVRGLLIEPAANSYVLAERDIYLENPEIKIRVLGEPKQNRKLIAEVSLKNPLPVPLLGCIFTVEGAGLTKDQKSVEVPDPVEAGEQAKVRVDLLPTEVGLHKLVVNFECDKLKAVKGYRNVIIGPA
Protocol for creatine kinase (CK): (§1) The activities of CK and TG (both purchased from Sigma-Aldrich (Schnelldorf, Germany) were assayed with the help of the commercial kits CK NAC activated liquiUV test form
(§2) Human GmbH (Wiesbaden, Germany) and the Enzymatic Assay of [sequence] from Sigma-Aldrich (Schnelldorf, Germany) according to the manufacturers' instructions.
Protocol for hDDAH-1: The most commonly used procedure to determine hDDAH-1 activity relies on diacetyl monoxime (DAMO) derivatization of the ureido group in L-citrulline to form a colored product. This assay has been optimized for monitoring DDAH activity in a 96-well format {Knipp et al., 2000}.
Purified recombinant His6-tagged hDDAH-1 was incubated with its substrate ADMA in assay buffer (100 mM Na2HPO4, pH 8.0) at 37° C. for 1 h. The reaction was quenched by the addition of 0.3 M trifluoroacetic acid. The L-citrulline formed was modified with 1.5 mg/ml DAMO (diacetyl monoxime) and 1.0 mg/ml antipyrine in the presence of 15% sulphuric acid, 12% phosphoric acid and 0.16 mg/ml FeCla3 for 10 minutes at 100° C. After cooling down to room temperature, the absorbance was measured at 450 nm.
Protocol for papain: The activity of papain was assessed using a similar experimental setting, based on its cleavage of pGlu-Phe-Leu-pNA in reaction buffer (25 mM Tris-HCL, pH 7.6; 150 mM NaCl).
Protocol for transglutaminase (TG): as §1, §2

For the compound `CC[C@H](C)[C@H](NC(=O)[C@H](Cc1ccccc1)NC(=O)[C@H](CC(=O)O)NC(=O)[C@H](CCCNC(=N)CF)NC(=O)[C@H](CC(=O)O)NC(=O)[C@H](Cc1ccccc1)NC(=O)[C@H](CCCCN)NC(C)=O)C(N)=O` [Peptide 0743-58FA, Ac-K-F-D-O(FA)-D-F-I-amide] (Ac-KFD[Orn(fluoroacetimidoyl)]DFI-NH2), the half-inhibitory concentration (IC50) against creatine kinase (CK) is 800 µM; at transglutaminase (TG) it was 1000 µM; at papain, over 2000 µM; against hDDAH-1, over 2000 µM; against caspase-3, 920 µM; at PAD2 [1], 35 µM.
In turn, `N=C(CF)NCCC[C@H](NC(=O)[C@H](CC(=O)O)NC(=O)CN)C(=O)N[C@@H](CO)C(=O)NCC(=O)O` [SEQ ID NO: 13, G-D-O(FA)-S-G] (H-GD[Orn(fluoroacetimidoyl)]SG-OH) had an IC50 at PAD2 [2] of 17 µM.
